Measurements as given in patent US12396459B2, “Synergistically effective herbicide composition comprising pyridate and at least one defined 4-HPPD inhibitor” (BELCHIM CROP PROTECTION NV, priority 2018, dated 2025).

Tests used:
Type in all cases: in vivo
Amaranthus retroflexus = test: Field trial post-emergence in maize: AMARE; conditions: 13-14 DAA, # = 1
Procedure: (§1) Herbicidal activity of herbicide compositions according to the first aspect of the present invention with regard to different types of unwanted vegetation was determined during trials performed on test fields (field trials). Individual compositions comprising pyridate and individual compositions comprising a defined 4-HPPD inhibitor are compared with a herbicide composition according to the invention comprising both pyridate and a defined 4-HPPD inhibitor. The expected activity of the combination of the active compounds pyridate and a defined 4-HPPD inhibitor is calculated according to above mentioned calculation method by Colby, in order to evaluate a synergistic effect between pyridate and a defined 4-HPPD inhibitor.
(§2) Herbicidal activity was determined by applying herbicide compositions on emerged unwanted vegetation on fields where maize was cultivated. Pyridate and a defined 4-HPPD inhibitor were applied as a tank mixture by mixing these active compounds prior to use in a spray tank. The corresponding mixture was in the form of a spray liquor. Besides, spray liquors of individual compositions comprising pyridate and of individual compositions comprising a defined 4-HPPD inhibitor were used. Test plants of unwanted vegetation with a growth stage corresponding to BBCH 10-18 (according to the extended BBCH-scale) were sprayed with the active compound preparations such that particular desired amounts of active compounds are applied per unit area. Spray liquor was diluted with water to arrive at an application volume of 50 to 450 L/ha. At a specified number of days after application (DAA), the degree of damage to the unwanted vegetation is rated in % of plants of unwanted vegetation that were killed, which was assessed by visually controlling the plants.

Sorghum halepense = test: Field trial post-emergence in maize: SORHA; conditions: 7-14 DAA; # = 1; g a.c./ha: PYR 300, MES 100, PYR + MES 300 + 90
Procedure: as §1
(§3) Herbicidal activity was determined by applying herbicide compositions on emerged unwanted vegetation on fields where maize was cultivated. Pyridate and a defined 4-HPPD inhibitor were applied as a tank mixture by mixing these active compounds prior to use in a spray tank. The corresponding mixture was in the form of a spray liquor. […] At a specified number of days after application (DAA), the degree of damage to the unwanted vegetation is rated in % of plants of unwanted vegetation that were killed, which was assessed by visually controlling the plants.

Persicaria maculosa = test: Field trial post-emergence in maize: POLPE; conditions: for herbicidal effect (h.e.): g a.c./ha: PYR 300, MES 100, PYR + MES 300 + 90
Procedure: as §1, §2

Chenopodium album = test: Examples 6-8 herbicidal effect: CHEAL; conditions: 7 DAA
Veronica persica = test: Examples 6-8 herbicidal effect: VERPE; conditions: 7 DAA
Xanthium spinosum = test: Field trial post-emergence in maize: XANSP; conditions: 7-14 DAA; # = 3; g a.c./ha: PYR 300, MES 100, PYR + MES 300 + 90
Procedure: as §1, §3

Cirsium arvense = test: Field trial post-emergence in maize: CIRAR; conditions: # = 1, g a.c./ha: PYR 300, MES 100, PYR + MES 300 + 90
Procedure: as §1, §2

Setaria viridis = test: Field trial post-emergence in maize: SETVI
Procedure: as §1, §2
(§4) Example 1 concerns a herbicide composition comprising a combination of pyridate and mesotrione, which was applied post-emergence on unwanted vegetation on a field where maize was cultivated, according to the test conditions mentioned above.

Sonchus oleraceus = test: Field trial post-emergence in maize: SONOL; conditions: # = 1, g a.c./ha: PYR 300, MES 100, PYR + MES 300 + 90
Procedure: as §1, §2

Echinochloa crus-galli = test: Field trial post-emergence in maize: ECHCG; conditions: for herbicidal effect (h.e.): g a.c./ha: PYR 300, MES 100, PYR + MES 300 + 90
Procedure: as §1, §2

Geranium sp. = test: Field trial post-emergence in maize: GERSS; conditions: # = 1, g a.c./ha: PYR 300, MES 100, PYR + MES 300 + 90
Procedure: as §1, §2

Setaria verticillata [1] = test: Examples 6-8 herbicidal effect: SETVE; conditions: 7 DAA
Setaria verticillata [2] = test: Field trial post-emergence in maize: SETVE
Procedure: as §1, §2, §4

Galium aparine = test: Field trial post-emergence in maize: GALAP
Procedure: as §1, §2, §4

Thlaspi arvense = test: Field trial post-emergence in maize: THLAR; conditions: # = 1, g a.c./ha: PYR 300, MES 100, PYR + MES 300 + 90
Procedure: as §1, §2

[3] = test system: Tripleurospermum inodorum; test: Field trial post-emergence in maize: MATIN; conditions: for herbicidal effect (h.e.): # = 1, g a.c./ha: PYR 300, MES 100, PYR + MES 300 + 90
Procedure: as §1, §2

Anagallis arvensis = test: Field trial post-emergence in maize: ANGAR; conditions: 7-14 DAA; # = 2; g a.c./ha: PYR 300, MES 100, PYR + MES 300 + 90
Procedure: as §1, §3

Viola arvensis = test: Field trial post-emergence in maize: VIOAR
Procedure: as §1, §2, §4

[4] = test system: Brassica rapa Canola cultivars; test: Field trial post-emergence in maize: BRSRC; conditions: 13-14 DAA, # = 1
Procedure: as §1, §2

Polygonum aviculare = test: Field trial post-emergence in maize: POLAV
Procedure: as §1, §2, §4

[5] = g a.c./ha: PYR 450, MES 144, PYR + MES 450 + 144
[6] = g a.c./ha: PYR 450, TOP 12.4, PYR + TOP 450 + 12.4
[7] = g a.c./ha: PYR 10, TEM 22, PYR + TEM 10 + 100
[8] = g a.c./ha: PYR 300, PYR + MES 300 + 80
[9] = g a.c./ha: PYR 300, SCT 300, PYR + SCT 300 + 300
[10] = g a.c./ha: PYR 300, TEM 100, PYR + TEM 300 + 100
[11] = g a.c./ha: PYR 450, SCT 450, PYR + SCT 300 + 450
[12] = g a.c./ha: PYR 600, PYR + SCT 600 + 300
[13] = g a.c./ha: PYR 900, TEM 44, PYR + TEM 900 + 44

## CCCCCCCCSC(=O)Oc1cc(Cl)nnc1-c1ccccc1 [PYR, (6-chloro-3-phenylpyridazin-4-yl) octylsulfanylformate]
Amaranthus retroflexus; [5]
  herbicidal effect (h.e.): 72%
Amaranthus retroflexus; [6]
  herbicidal effect (h.e.): 72%
Sorghum halepense
  herbicidal effect (h.e.): 58%
Persicaria maculosa; 7-14 DAA, # = 3
  herbicidal effect (h.e.): 42%
Persicaria maculosa; 31-48 DAA, # = 4
  herbicidal effect (h.e.): 32%
Persicaria maculosa; POLPE 14-20 DAA 300 g a.c./ha
  PYR h.e.: 15%
Persicaria maculosa; POLPE 14-20 DAA 600 g a.c./ha
  PYR h.e.: 23%
Persicaria maculosa; POLPE 14-20 DAA 900 g a.c./ha
  PYR h.e.: 28%
Persicaria maculosa; POLPE 24-31 DAA 300 g a.c./ha
  PYR h.e.: 17%
Persicaria maculosa; POLPE 24-31 DAA 600 g a.c./ha
  PYR h.e.: 33%
Persicaria maculosa; POLPE 24-31 DAA 900 g a.c./ha
  PYR h.e.: 32%
Chenopodium album; [7]
  herbicidal effect (h.e.): 0%
Chenopodium album; [8]
  herbicidal effect (h.e.): 6%
Chenopodium album; [9]
  herbicidal effect (h.e.): 3%
Chenopodium album; [10]
  herbicidal effect (h.e.): 5%
Chenopodium album; [11]
  herbicidal effect (h.e.): 10%
Chenopodium album; [12]
  herbicidal effect (h.e.): 22%
Chenopodium album; [13]
  herbicidal effect (h.e.): 90%
Veronica persica; [7]
  herbicidal effect (h.e.): 0%
Veronica persica; [8]
  herbicidal effect (h.e.): 8%
Veronica persica; [9]
  herbicidal effect (h.e.): 10%
Veronica persica; [10]
  herbicidal effect (h.e.): 10%
Veronica persica; [11]
  herbicidal effect (h.e.): 15%
Veronica persica; [12]
  herbicidal effect (h.e.): 10%
Veronica persica; [13]
  herbicidal effect (h.e.): 50%
Xanthium spinosum
  herbicidal effect (h.e.): 5%
Cirsium arvense; 7-14 DAA
  herbicidal effect (h.e.): 23%
Cirsium arvense; 31-48 DAA
  herbicidal effect (h.e.): 49%
Setaria viridis; SETVI 14-20 DAA 300 g a.c./ha
  PYR h.e.: 10%
Setaria viridis; SETVI 14-20 DAA 600 g a.c./ha
  PYR h.e.: 20%
Setaria viridis; SETVI 14-20 DAA 900 g a.c./ha
  PYR h.e.: 25%
Setaria viridis; SETVI 24-31 DAA 300 g a.c./ha
  PYR h.e.: 0%
Setaria viridis; SETVI 24-31 DAA 600 g a.c./ha
  PYR h.e.: 0%
Setaria viridis; SETVI 24-31 DAA 900 g a.c./ha
  PYR h.e.: 0%
Sonchus oleraceus; 7-14 DAA
  herbicidal effect (h.e.): 93%
Sonchus oleraceus; 18-28 DAA
  herbicidal effect (h.e.): 51%
Sonchus oleraceus; 31-48 DAA
  herbicidal effect (h.e.): 37%
Echinochloa crus-galli; 7-14 DAA, # = 9
  herbicidal effect (h.e.): 20%
Echinochloa crus-galli; 18-28 DAA, # = 14
  herbicidal effect (h.e.): 23%
Echinochloa crus-galli; 31-48 DAA, # = 13
  herbicidal effect (h.e.): 23%
Echinochloa crus-galli; ECHCG 14-20 DAA 300 g a.c./ha
  PYR h.e.: 10%
Echinochloa crus-galli; ECHCG 14-20 DAA 600 g a.c./ha
  PYR h.e.: 23%
Echinochloa crus-galli; ECHCG 14-20 DAA 900 g a.c./ha
  PYR h.e.: 31%
Echinochloa crus-galli; ECHCG 24-31 DAA 300 g a.c./ha
  PYR h.e.: 0%
Echinochloa crus-galli; ECHCG 24-31 DAA 600 g a.c./ha
  PYR h.e.: 3%
Echinochloa crus-galli; ECHCG 24-31 DAA 900 g a.c./ha
  PYR h.e.: 20%
Geranium sp.; 7-14 DAA
  herbicidal effect (h.e.): 13%
Geranium sp.; 18-28 DAA
  herbicidal effect (h.e.): 0%
Geranium sp.; 31-48 DAA
  herbicidal effect (h.e.): 0%
Setaria verticillata [1]; [7]
  herbicidal effect (h.e.): 0%
Setaria verticillata [1]; [8]
  herbicidal effect (h.e.): 0%
Setaria verticillata [1]; [9]
  herbicidal effect (h.e.): 10%
Setaria verticillata [1]; [10]
  herbicidal effect (h.e.): 0%
Setaria verticillata [1]; [11]
  herbicidal effect (h.e.): 7%
Setaria verticillata [1]; [12]
  herbicidal effect (h.e.): 10%
Setaria verticillata [1]; [13]
  herbicidal effect (h.e.): 0%
Setaria verticillata [2]; SETVE 14-20 DAA 300 g a.c./ha
  PYR h.e.: 29%
Setaria verticillata [2]; SETVE 14-20 DAA 600 g a.c./ha
  PYR h.e.: 47%
Setaria verticillata [2]; SETVE 14-20 DAA 900 g a.c./ha
  PYR h.e.: 75%
Setaria verticillata [2]; SETVE 24-31 DAA 300 g a.c./ha
  PYR h.e.: 29%
Setaria verticillata [2]; SETVE 24-31 DAA 600 g a.c./ha
  PYR h.e.: 33%
Setaria verticillata [2]; SETVE 24-31 DAA 900 g a.c./ha
  PYR h.e.: 60%
Galium aparine; GALAP 14-20 DAA 300 g a.c./ha
  PYR h.e.: 20%
Galium aparine; GALAP 14-20 DAA 600 g a.c./ha
  PYR h.e.: 30%
Galium aparine; GALAP 14-20 DAA 900 g a.c./ha
  PYR h.e.: 35%
Galium aparine; GALAP 24-31 DAA 300 g a.c./ha
  PYR h.e.: 18%
Galium aparine; GALAP 24-31 DAA 600 g a.c./ha
  PYR h.e.: 30%
Galium aparine; GALAP 24-31 DAA 900 g a.c./ha
  PYR h.e.: 38%
Thlaspi arvense; 7-14 DAA
  herbicidal effect (h.e.): 28%
Thlaspi arvense; 18-28 DAA
  herbicidal effect (h.e.): 19%
[3]; 7-14 DAA
  herbicidal effect (h.e.): 3%
[3]; 18-28 DAA
  herbicidal effect (h.e.): 5%
[3]; 31-48 DAA
  herbicidal effect (h.e.): 5%
[3]; MATIN 24-31 DAA 300 g a.c./ha
  PYR h.e.: 75%
[3]; MATIN 24-31 DAA 600 g a.c./ha
  PYR h.e.: 60%
[3]; MATIN 24-31 DAA 900 g a.c./ha
  PYR h.e.: 55%
Anagallis arvensis
  herbicidal effect (h.e.): 6%
Viola arvensis; VIOAR 14-20 DAA 300 g a.c./ha
  PYR h.e.: 31%
Viola arvensis; VIOAR 14-20 DAA 600 g a.c./ha
  PYR h.e.: 34%
Viola arvensis; VIOAR 14-20 DAA 900 g a.c./ha
  PYR h.e.: 50%
[4]; [5]
  herbicidal effect (h.e.): 48%
[4]; [6]
  herbicidal effect (h.e.): 48%
Polygonum aviculare; POLAV 14-20 DAA 300 g a.c./ha
  PYR h.e.: 18%
Polygonum aviculare; POLAV 24-31 DAA 300 g a.c./ha
  PYR h.e.: 17%
